Laboratory results reported in PubChem BioAssay (NCI).
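Compound exposure: 48 hours, 5 concentrations, 96-well plates. GI50 marks 50% less growth. TGI: total growth inhibition.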

Columns and labels:
Test in all cases: inhibition of tumour cell growth, NCI panel, 48 h
NCI-H522 lung = system: NCI-H522 lung
A549 NSCLC = system: A549 NSCLC
CAKI-1 renal = system: CAKI-1 renal
HCT-15 colon = system: HCT-15 colon
UACC-257 melanoma = system: UACC-257 melanoma
IGROV1 ovarian = system: IGROV1 ovarian
T-47D breast = system: T-47D breast
786-0 renal = system: 786-0 renal
COLO 205 colon = system: COLO 205 colon
M14 melanoma = system: M14 melanoma

SMILES	GI50 (NCI-H522 lung)	TGI (NCI-H522 lung)	GI50 (A549 NSCLC)	TGI (A549 NSCLC)	GI50 (CAKI-1 renal)	TGI (CAKI-1 renal)	GI50 (HCT-15 colon)	TGI (HCT-15 colon)	GI50 (UACC-257 melanoma)	TGI (UACC-257 melanoma)	GI50 (IGROV1 ovarian)	TGI (IGROV1 ovarian)	GI50 (T-47D breast)	TGI (T-47D breast)	GI50 (786-0 renal)	TGI (786-0 renal)	GI50 (COLO 205 colon)	TGI (COLO 205 colon)	GI50 (M14 melanoma)	TGI (M14 melanoma)
COc1cccc(-n2nc(C)c3c(N/N=C(\C)c4ccncc4)ncnc32)c1	> 25 µM	> 25 µM	> 25 µM	> 25 µM	> 25 µM	> 25 µM	> 25 µM	> 25 µM	> 25 µM	> 25 µM	> 25 µM	> 25 µM	6.6 µM	> 25 µM	> 25 µM	> 25 µM	> 25 µM	> 25 µM	> 25 µM	> 25 µM
Nc1nc(N)c2nc(CNc3ccc(C(=O)NC(CC(=O)O)C(=O)O)cc3)cnc2n1 (stereo not given)	3.97 µM	> 100 µM	0.569 µM	> 100 µM	0.481 µM	12.4 µM	0.526 µM	> 100 µM	> 33.8 µM	> 100 µM	0.631 µM	> 100 µM	> 65.6 µM	> 100 µM	0.372 µM	> 100 µM	31 µM	> 100 µM	0.556 µM	> 100 µM
O=C(O)C1OC1(c1cccc(Cl)c1)c1ccccc1Cl (stereo not given)	–	65 µM	–	> 100 µM	–	81.8 µM	–	22.9 µM	–	70.6 µM	–	> 100 µM	–	> 100 µM	–	> 100 µM	–	> 100 µM	–	42.2 µM
CCn1cnc(C[C@H](NC(=O)[C@@H](NC(=O)Nc2cc(C(F)(F)F)cc(C(F)(F)F)c2)C(C)C)C(=O)OC)c1	1.78 µM	3.98 µM	3.19 µM	> 10 µM	> 10 µM	> 10 µM	> 10 µM	> 10 µM	> 10 µM	> 10 µM	2.33 µM	5.75 µM	3.66 µM	> 10 µM	1.81 µM	3.67 µM	2.61 µM	7.07 µM	3.54 µM	> 10 µM
CNC(=O)c1cccc2cc(Oc3ccnc4cc(OCC5(N)CC5)c(OC)cc34)ccc12	8.94 µM	25.6 µM	10.9 µM	26.3 µM	11.9 µM	25 µM	6.56 µM	20.2 µM	16.5 µM	32.2 µM	7.63 µM	28.2 µM	17.8 µM	39.2 µM	2.82 µM	10.1 µM	8.66 µM	23.7 µM	8.47 µM	24.3 µM
O=C(Nc1cccc(-n2cc(-c3ccncc3)c(-c3ccc(Cl)c(O)c3)n2)c1)c1ccc(N2CCOCC2)c(C(F)(F)F)c1	2.31 µM	44 µM	3.08 µM	> 50 µM	2.78 µM	24.6 µM	1.81 µM	25.3 µM	6.3 µM	36.8 µM	9.42 µM	> 50 µM	35.9 µM	> 50 µM	2.83 µM	12.5 µM	> 50 µM	> 50 µM	1.63 µM	9.1 µM
Cc1ccc(C(CC(=O)c2ccccc2)C2C(=O)NC(=O)NC2=O)cc1 (stereo not given)	> 100 µM	> 100 µM	> 100 µM	> 100 µM	> 100 µM	> 100 µM	> 100 µM	> 100 µM	> 100 µM	> 100 µM	> 100 µM	> 100 µM	> 100 µM	> 100 µM	> 100 µM	> 100 µM	> 100 µM	> 100 µM	> 100 µM	> 100 µM
O=c1ccn(C2CC(O)C(CO)O2)c(=O)[nH]1 (stereo not given)	> 5000 µM	> 5000 µM	> 5000 µM	> 5000 µM	> 5000 µM	> 5000 µM	> 5000 µM	> 5000 µM	> 5000 µM	> 5000 µM	> 5000 µM	> 5000 µM	> 5000 µM	> 5000 µM	> 5000 µM	> 5000 µM	> 5000 µM	> 5000 µM	> 5000 µM	> 5000 µM
COc1cccc(C2=C(c3c(C)n(C)c4ccccc34)C(=O)NC2=O)c1	15.3 µM	> 25 µM	16.4 µM	> 25 µM	> 25 µM	> 25 µM	12.1 µM	> 25 µM	> 25 µM	> 25 µM	> 22.3 µM	> 25 µM	8.83 µM	> 25 µM	> 25 µM	> 25 µM	14.8 µM	> 25 µM	21.1 µM	> 25 µM
COc1ccc(/C=C/C(=O)c2ccc(O)c(CN3CCN(c4cc5c(cc4F)c(=O)c(C(=O)O)cn5C4CC4)CC3)c2)cc1	1.98 µM	28.7 µM	3.69 µM	> 100 µM	2.35 µM	> 100 µM	2.22 µM	> 100 µM	2.17 µM	69.9 µM	1.27 µM	> 100 µM	1.83 µM	> 100 µM	0.854 µM	> 100 µM	11.8 µM	33.4 µM	1.13 µM	> 100 µM
